Patent US10894051B2, “Method of treating metastatic cancer in a subject” (City University of Hong Kong, priority 2017, dated 2021)

How the values were obtained:
[1] = system: cancer cell; test: colony formation from single cancer cell; type: cell-based; settings: 2 μM, 5 μM and 10 μM
Method: (§1) HeLa cells, A549 cells, CNE-1 cells and human liver cancer stem cells (hLCSCs) were incubated and treated with vacuolin-1 at different concentrations, namely 2 μM, 5 μM and 10 μM.

[2] = system: A549 cells; test: trans-well migration assay; type: cell-based; settings: 2 μM, 5 μM and 10 μM
Method: as §1

[3] = system: CNE-1 cells; test: trans-well migration assay; type: cell-based; settings: 2 μM, 5 μM and 10 μM
Method: as §1

[4] = system: HeLa cells; test: trans-well migration assay; type: cell-based; settings: 2 μM, 5 μM and 10 μM
Method: as §1

[5] = system: human liver cancer stem cells (hLCSCs); test: trans-well migration assay; type: cell-based; settings: 2 μM, 5 μM and 10 μM
Method: as §1

[6] = system: hLCSCs; test: matrigel invasion assay; type: cell-based, human
Method: as §1

[7] = system: hLCSCs; test: tumor sphere formation; type: cell-based, human
[8] = system: focal adhesion (FA); test: FA disassembly after nocodazole release (Vinculin staining); type: cell-based
Method: (§2) Autophagy or endosomal trafficking contributes to the migration and invasion of tumor cells by changing the microtubule dynamics, or presentation of surface proteins, or secretion of extracellular matrix (ECM) proteins. Also, focal adhesion (FA) dynamics is a key process for cell migration. In this regard, the effects of vacuolin-1 on the spatio-temporal regulation of FA dynamics were assessed. Phospho-Y397 FAK immunoblot was used to assess the effects of vacuolin-1 on phosphorylation and dephosphorylation dynamics of FAK. Cells were also treated with nocodazole, followed by nocodazole removal and vacuolin-1 incubation, stained with antibodies against Vinculin and Phalloidiin for FA and stress fiber, respectively.
With reference to FIGS. 1E and 1F, cells were treated with nocodazole so as to depolymerize microtubules for inducing and stabilizing FA formation, showing by the puncta staining pattern of Vinculin (green colour), whereas removal of nocodazole led to microtubule regrowth resulting in decreasing the number of FA in a time-dependent manner until the reformation of FAs. […] Focal adhesion kinase (FAK) phosphorylation and dephosphorylation on Y397 is another readout of FA dynamics.

[9] = system: Focal adhesion kinase (FAK); test: phospho-Y397 FAK immunoblot; type: cell-based; settings: phosphor-Y397 FAK immunoblot
Method: as §2
Consistently, with reference to FIG. 1D, vacuolin-1 treatment of cells abolished phosphorylation and dephosphorylation dynamics of FAK as assessed by the phosphor-Y397 FAK immunoblot analysis.

[10] = system: cancer cells; test: cytotoxicity in vitro; type: cell-based
[11] = system: LCSCs; test: xenograft tumor-seeding of vacuolin-1 pretreated LCSCs; type: in vivo, nude mice; settings: for tumor incidence / tumor volume: pretreated 10 μM 48 hours, after 4 weeks
Method: Nude mice were divided into 4 control groups and 4 treatment groups, each group having 6 nude mice. With reference to FIG. 2A, LCSCs were pretreated with DMSO or 10 μM vacuolin-1 for 48 hours before injecting to nude mice via subcutaneous injection. After 4 weeks, the tumor incidence in mice was measured to determine whether the pretreatment of vacuolin-1 can inhibit the invasion cancer cells in mice.

[12] = system: tfLC3B-expressing LCSCs; test: metastasis of tail vein injected LCSCs; type: in vivo; settings: 2.5 mg/kg IP 3 times per week; 8 weeks; nude mice
Method: With reference to FIG. 3A, briefly, 5×10^5 tfLC3B-expressing LCSCs were injected via tail vein into nude mice. 24 hours after the tail vein injection, intraperitoneal (IP) injection of vacuolin-1 (2.5 mg/kg) were conducted 3 times per week. After 8 weeks, all mice were sacrificed. Lungs were excised, and fixed in the 4% paraformaldehyde in PBS. Metastatic nodules were counted in the excised lungs and hemotoxylin/eosin (H&E) were then performed.

[13] = system: human breast cancer cells CA1a; test: metastasis of tail vein injected CA1a cells; type: in vivo; settings: 2.5 mg/kg IP 3 times per week; 8 weeks; nude mice
Method: Similarly, the anti-metastasis effects of vacuolin-1 in human breast cancer cells CA1a in xenograft mouse models were evaluated. With reference to FIG. 4A, briefly, 5×10^5 Fluc-mCherry-expressing CA1a cells were injected by tail vein into nude mice. 24 hours after the tail vein injection, IP injections of vacuolin-1 (2.5 mg/kg) and DMSO-containing PBS were conducted 3 times per week. The mice where imaged by the Cri Maestro 2 weekly to assess the tumor progression. After 8 weeks, all mice were sacrificed.

[14] = system: mouse breast carcinoma 4TO7; test: metastasis of tail vein injected 4TO7 cells; type: in vivo, normal BALBc mice; settings: 2.5 mg/kg daily IP; BALBc mice
Method: To exclude the effects of immunodeficiency (nude mice) on the drug effects, another metastasis tumor model was established by tail vein injection of mouse breast carcinoma 4TO7 into normal BALBc mice followed by daily IP injections of vacuolin-1 (2.5 mg/kg) 24 hour later, as illustrated in FIG. 5A.

[15] = system: Fluc-mCherry-expressing 4TO7 cells; test: metastasis of tail vein injected Fluc-mCherry 4TO7 cells; type: in vivo; settings: tail vein injection; 2.5 mg/kg IP; 2 weeks; normal mice
Method: Since 4TO7 cells are more metastatic than LCSCs, Fluc-mCherry-expressing 4TO7 cells were injected into normal mice via tail vein injection followed by IP injections of vacuolin-1 (2.5 mg/kg) 24 hour later, as illustrated in FIG. 6A. The mice were imaged by the Cri Maestro 2 weekly to assess the tumor progression. Mice were sacrificed after 2 weeks, and the number of tumor colonies in lung was counted.

[16] = system: Fluc-mCherry-expressing 4TO7 cells; test: metastasis of fat pad injected Fluc-mCherry 4TO7 cells; type: in vivo; settings: fat pad injection; 2.5 mg/kg IP; 4 weeks; normal female mice
Method: The anti-metastasis effects of vacuolin-1 in another metastasis model have also been evaluated. With reference to FIG. 7A, Fluc-mCherry-expressing 4TO7 cells were injected into the fat pad of normal female mice followed by IP injections of vacuolin-1 (2.5 mg/kg) 24 hour later. The mice were imaged by the Cri Maestro 2 weekly to assess the tumor progression. Mice were sacrificed after 4 weeks, and the number of tumor colonies in lung was counted.

[17] = acute toxicity via oral route; type: in vivo; settings: single dose 250 mg/kg oral
Method: In particular, vacuolin-1 was administered at a single dose of 250 mg/kg to young adult male and female mice via oral route, and DMSO-containing PBS was administered to another set of male and female mice via oral route as a control group. […] During the 2 weeks, the body weight was also measured. After the 2 weeks, organs were excised for histopathology evaluation.
Referring to FIG. 8B, all tissues or organs in vacuolin-1 treated mice were normal in histological point of view as compared to control groups.

[18] = sub-chronic toxicity; type: in vivo; settings: 5 mg/kg daily intraperitoneal; 3 months; mice
Method: As for the sub-chronic toxicity of vacuolin-1, 5 mg/kg vacuolin-1 was administered daily to young adult male and female mice via intraperitoneal route for 3 months, and DMSO-containing PBS was administered to another set of male and female mice as a control group. The body weight of the mice was determined every week. […] After the 3 months, organs were excised for histopathology evaluation.

[19] = 1*10^4 LCSCs injected subcutaneously
[20] = 1*10^5 LCSCs injected subcutaneously
[21] = 1*10^6 LCSCs injected subcutaneously

Ic1cccc(/C=N/Nc2nc(N3CCOCC3)nc(N(c3ccccc3)c3ccccc3)n2)c1 [vacuolin-1]
size and number of colonies generated from single cancer cell [1]: dramatically reduced
cell migration [2]: significantly inhibited
cell migration [3]: significantly inhibited
cell migration [4]: significantly inhibited
cell migration [5]: significantly inhibited
cell invasion [6]: significantly inhibited
tumor sphere formation [7]: significantly inhibited
FA disassembly [8]: markedly inhibited
phosphorylation and dephosphorylation dynamics of FAK [9]: abolished
cytotoxicity [10]: no cytotoxicity
tumor incidence ([11]; 1*10^3 LCSCs injected subcutaneously): 0/6
tumor incidence [11, 19]: 2/6
tumor volume [11, 19]: (1069 mm^3)
tumor incidence [11, 20]: 2/6
tumor volume [11, 20]: (1184 mm^3)
tumor incidence [11, 21]: 5/6
tumor volume [11, 21]: (1521 mm^3)
tumor-seeding ability of LCSC cells ([11]; vacuolin-1 pretreatment, nude mice): markedly inhibited
metastasis of LCSCs (tumor nodules in lung, lung histology) [12]: significantly inhibited
metastasis of CA1a cells [13]: significantly inhibited
anti-metastatic effects on 4TO7 cells (tumor nodules in lungs, lung histology) [14]: striking anti-metastatic effects
metastasis of 4TO7 cells [15]: markedly inhibited
metastasis of 4TO7 cells [16]: markedly inhibited
behavior abnormality ([17]; 2 weeks): no signs of behavior abnormality
mouse weight gain ([17]; 2 weeks): no effects
histology of tissues or organs ([17]; after 2 weeks): normal
acute toxicity ([17]; mice): no acute toxicity
sub-chronic toxicity [18]: no sub-chronic toxicity
